# Patent publication US9902728B2, “Pyrrolo and pyrazolopyrimidines as ubiquitin-specific protease 7 inhibitors” (Forma Therapeutics, Inc., priority 2014, dated 2018)
# Molecular target: T1, USP7 (Homo sapiens, UniProt Q93009)
# T1 construct: USP7, construct USP7 (208-1102) 6*His, Viva Biotech; 6xHis (C); purchased Viva Biotech
# Assay: USP7 Assay A (Ubitquin-Rhodamine 110 Assay)
# Assay type: biochemical
# Details: USP7 activity in USP7 assay A and B (table does not say which assay per compound); read-out: USP7_IC50
# Method in brief: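 Enzyme and compound sat together for 30 min before Ub-Rh110 was added, in buffer of 20 mM Tris-HCl (pH 8.0), 1 mM GSH, 0.03% BGG and 0.01% Triton X-100.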
# T1 sequence (Q93009 208-1102): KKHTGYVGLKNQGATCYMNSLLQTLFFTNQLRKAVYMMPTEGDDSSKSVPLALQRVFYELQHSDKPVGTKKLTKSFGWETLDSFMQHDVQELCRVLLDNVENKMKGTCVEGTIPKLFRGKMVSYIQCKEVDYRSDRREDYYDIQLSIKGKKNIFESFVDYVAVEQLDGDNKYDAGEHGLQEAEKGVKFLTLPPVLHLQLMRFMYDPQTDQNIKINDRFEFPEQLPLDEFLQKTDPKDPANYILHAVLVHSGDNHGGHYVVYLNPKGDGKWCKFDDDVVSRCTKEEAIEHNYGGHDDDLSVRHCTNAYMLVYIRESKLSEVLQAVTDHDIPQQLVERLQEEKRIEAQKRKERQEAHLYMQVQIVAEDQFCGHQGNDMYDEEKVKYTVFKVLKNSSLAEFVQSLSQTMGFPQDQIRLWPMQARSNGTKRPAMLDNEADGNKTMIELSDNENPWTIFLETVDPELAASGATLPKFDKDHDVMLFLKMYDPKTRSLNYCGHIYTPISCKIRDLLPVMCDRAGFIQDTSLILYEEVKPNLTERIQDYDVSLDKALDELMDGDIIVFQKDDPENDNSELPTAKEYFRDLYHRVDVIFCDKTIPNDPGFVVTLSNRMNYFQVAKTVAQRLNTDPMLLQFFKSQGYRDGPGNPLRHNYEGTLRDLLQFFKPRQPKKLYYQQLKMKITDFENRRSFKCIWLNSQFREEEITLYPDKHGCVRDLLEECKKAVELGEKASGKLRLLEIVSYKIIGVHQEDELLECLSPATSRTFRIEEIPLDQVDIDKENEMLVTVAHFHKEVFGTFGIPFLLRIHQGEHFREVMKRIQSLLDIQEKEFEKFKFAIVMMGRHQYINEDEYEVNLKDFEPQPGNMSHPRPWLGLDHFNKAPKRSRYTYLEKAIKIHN
row,Compound,IC50 [nM]
1,Cc1cc(OC2CCC(C(=O)N3CCC(O)(Cn4cnc5c(cnn5-c5ccc(F)cc5)c4=O)CC3)CC2)no1 (centres unmarked) [Compound I-755],200 to 1000
2,Cn1ccc(NC2CCC(C(=O)N3CCC(O)(Cn4cnc5c(cnn5-c5ccc(F)cc5)c4=O)CC3)CC2)n1 (centres unmarked) [Compound I-766],200 to 1000
3,Cn1cc(C(=O)N2CCC(O)(Cn3cnc4c(cnn4-c4ccc(Cl)cc4)c3=O)CC2)cn1 [Compound I-772],200 to 1000
4,"CC1(C(=O)N2CCC(O)(Cn3cnc4c(cnn4-c4cccc(OCC5CC(F)(F)C5)c4)c3=O)CC2)CC1 [Compound I-1046, 1-(3-((3,3-difluorocyclobutyl)methoxy)phenyl)-5-((4-hydroxy-1-(1-methylcyclopropane-1-carbonyl)piperidin-4-yl)methyl)-1,5-dihydro-4H-pyrazolo[3,4-d]pyrimidin-4-one]",200 to 1000
5,Cn1cc(OC2CCC(C(=O)N3CCC(O)(Cn4cnc5c(cnn5-c5ccc(F)cc5)c4=O)CC3)CC2)cn1 (centres unmarked) [Compound I-758],200 to 1000
6,"NC(=O)Cn1cc(-c2ccc(C(=O)N3CCC(O)(Cn4cnc5c(cnn5-c5ccc(F)cc5)c4=O)CC3)cc2)cn1 [Compound I-1002, 2-(4-(4-(4-((1-(4-fluorophenyl)-4-oxo-1H-pyrazolo[3,4-d]pyrimidin-5(4H)-yl)methyl)-4-hydroxypiperidine-1-carbonyl)phenyl)-1H-pyrazol-1-yl)acetamide]",1000 to 10000
7,Cn1cc(-c2ccc(-n3ncc4c(=O)n(CC5(O)CCN(C(=O)C6(C)CC6)CC5)cnc43)cc2)cn1 [Compound I-775],200 to 1000
8,"COC1CCC(Oc2ccc(-n3ncc4c(=O)n(CC5(O)CCN(C(=O)C6(C)CC6)CC5)cnc43)cc2)CC1 (single isomer, unassigned) [Compounds I-1116]",200 to 1000
9,Cc1cc(N[C@H]2CC[C@@H](C(=O)N3CCC(O)(Cn4cnc5c(cnn5-c5ccc(F)cc5)c4=O)CC3)CC2)no1 [Compound I-807],1000 to 10000
10,O=C(C1CC1)N1CCC(O)(Cn2cnc3c(cnn3-c3ccc(-n4cc(N5CCOCC5)cn4)cc3)c2=O)CC1 [Compound I-819],200 to 1000
11,O=C(C[C@@H](n1cccn1)C(F)(F)F)N1CCC(O)(Cn2cnc3c(cnn3-c3ccc(F)cc3)c2=O)CC1 [Compound I-913],1000 to 10000
12,O=C(c1ccc(F)cc1)N1CCC(O)(Cn2cnc3c(cnn3-c3ccc(N4CCC5(CC4)CC(CO)C5)cc3)c2=O)CC1 [Compound I-1740],200 to 1000
13,O=C(c1ccc(N2CC3CC2CN3)cc1)N1CCC(O)(Cn2cnc3c(cnn3-c3ccc(F)cc3)c2=O)CC1 (centres unmarked) [Compound I-1005],1000 to 10000
14,O=C(c1ccc(F)cc1)N1CCC(O)(C(CO)n2cnc3c(cnn3-c3ccc(F)cc3)c2=O)CC1 (centres unmarked) [Compound I-720],1000 to 10000
15,Cc1nc(-c2ccc(-n3ncc4c(=O)n(CC5(O)CCN(C(=O)c6ccc(F)cc6)CC5)cnc43)cc2)c[nH]1 [Compound I-983],1000 to 10000
16,CC1(COc2ccc(-n3ncc4c(=O)n(CC5(O)CCN(C(=O)c6cnc(C7CC7)o6)CC5)cnc43)cc2)CCC1 [Compound I-1508],200 to 1000
17,O=C(c1ccc(F)cc1)N1CCC(O)(Cn2cnc3c(cnn3-c3ccc(N4CCCc5cnccc54)cc3)c2=O)CC1 [Compound I-1729],1000 to 10000
18,Cc1ncc(C(=O)N2CCC(O)(Cn3cnc4c(cnn4-c4ccc(OC5CCC(F)(F)CC5)cc4)c3=O)CC2)o1 [Compound I-1134],200 to 1000
19,O=C(c1ccnn1Cc1ccccc1)N1CCC(O)(Cn2cnc3c(cnn3-c3ccc(F)cc3)c2=O)CC1 [Compound I-541],200 to 1000
20,Cc1nccc(OC2CCC(C(=O)N3CCC(O)(Cn4cnc5c(cnn5-c5ccc(F)cc5)c4=O)CC3)CC2)n1 (centres unmarked) [Compound I-1016],200 to 1000
21,O=C(C1CC(Nc2ccc(F)cn2)C1)N1CCC(O)(Cn2cnc3c(cnn3-c3ccc(F)cc3)c2=O)CC1 (centres unmarked) [Compound I-1033],1000 to 10000
22,O=C(C1CCC(Oc2cnccn2)CC1)N1CCC(O)(Cn2cnc3c(cnn3-c3ccc(F)cc3)c2=O)CC1 (centres unmarked) [Compound I-1021],200 to 1000
23,O=C(C1CCC(NC2CC2)CC1)N1CCC(O)(Cn2cnc3c(cnn3-c3ccc(F)cc3)c2=O)CC1 (centres unmarked) [Compound I-769],200 to 1000
24,"Cn1ncc2c(=O)n(CC3(O)CCN(C(=O)CC(C(F)F)n4ccc(F)n4)CC3)cnc21 (single isomer, unassigned) [Compound I-1697]",< 200
25,O=C(c1ccc(F)cc1)N1CCC(O)(Cn2cnc3c(cnn3-c3ccc(-c4cnn(C5CS(=O)(=O)C5)c4)cc3)c2=O)CC1 [Compound I-1745],200 to 1000
26,C=CC(=O)N1CC[C@]1(C)C(=O)N1CCC(O)(Cn2cnc3c(cnn3-c3ccc(-c4ccccc4)cc3)c2=O)CC1 [Compound I-660],200 to 1000
27,CNC1CCN(c2ccc(-c3ccc(-n4ncc5c(=O)n(CC6(O)CCN(C(=O)C7CC7)CC6)cnc54)cc3)cn2)C1 (centres unmarked) [Compound I-845],< 200

# Same assay, conditions: USP7 assay A and B (table does not say which assay per compound); read-out: USP7_IC50
row,Compound,IC50 [nM]
1,Cn1ncc2c(=O)n(CC3(O)CCN(C(=O)c4ccc5c(c4)CCN(c4ccccc4)C5)CC3)cnc21 [Compound I-115],1000 to 10000
2,Cc1ccc(C(=O)N2CCC(O)(Cn3cnc4c(cnn4-c4ccc(Cl)cc4)c3=O)CC2)cc1F [Compound I-1523],1000 to 10000
3,O=C(c1ccc(-n2ccnn2)cc1)N1CCC(O)(Cn2cnc3c(cnn3-c3ccc(Cl)cc3)c2=O)CC1 [Compound I-1128],200 to 1000
4,C[C@@]1(O)CCN(c2cc(-n3ncc4c(=O)n(CC5(O)CCN(C(=O)C6CC6)CC5)cnc43)ccc2F)C1 [Compound I-638],200 to 1000
5,C[C@H](CC(=O)N1CCC(O)(Cn2cnc3c(cnn3-c3ccc(F)cc3)c2=O)CC1)n1ncc2c1CCC2 [Compound I-522],> 10000
6,CN(C)C1CCN(C(=O)c2cccc(-n3ncc4c(=O)n(CC5(O)CCN(C(=O)C6CC6)CC5)cnc43)c2)CC1 [Compound I-1468],1000 to 10000
7,O=C(C1CC1)N1CCC(O)(Cn2cnc3c(cnn3-c3ccc(-c4ccc(O[C@H]5CCNC5)cc4)cc3)c2=O)CC1 [Compound I-841],200 to 1000
8,O=C(C1CCCC1)N1CCC(O)(Cn2cnc3c(cnn3-c3ccccc3)c2=O)CC1 [Compound I-195],200 to 1000
9,"CNC(=O)N1CCC(O)(Cn2cnc3c(cnn3-c3ccc(F)cc3)c2=O)CC1 [Compound I-284, 4-{[1-(4-fluorophenyl)-4-oxo-1H,4H,5H-pyrazolo[3,4-d]pyrimidin-5-yl]methyl}-4-hydroxy-N-methylpiperidine-1-carboxamide]",1000 to 10000
10,O=C(N1CCC(O)(Cn2cnc3c(cnn3-c3ccc(F)cc3)c2=O)CC1)C12CC(C(F)(F)F)(C1)C2 [Compound I-423],1000 to 10000
11,C[C@@H](CC(=O)N1CCC(O)(Cn2cnc3c(cnn3-c3ccc(F)cc3)c2=O)CC1)n1cccn1 [Compound I-514],200 to 1000
12,CN(C(=O)c1ccc(C(=O)N2CCC(O)(Cn3cnc4c(cnn4C)c3=O)CC2)cc1)c1ccccc1 [Compound I-108],1000 to 10000
13,"O=C(O)Cc1cccc(-n2ncc3c(=O)n(CC4(O)CCN(C(=O)c5ccccc5)CC4)cnc32)c1 [Compound I-11, 2-(3-(5-((1-Benzoyl-4-hydroxypiperidin-4-yl)methyl)-4-oxo-4,5-dihydro-1H-pyrazolo[3,4-d]pyrimidin-1-yl)phenyl)acetic acid]",> 10000
14,O=C(c1ccccc1)N1CCC(O)(Cn2cnc3c(cnn3-c3ccccc3)c2=O)CC1 [Compound I-153],1000 to 10000
15,CS(=O)(=O)Nc1ccc(-n2ncc3c(=O)n(CC4(O)CCN(C(=O)C5CC5)CC4)cnc32)cc1 [Compound I-1431],1000 to 10000
16,O=C(C1CCC1)N1CCC(O)(Cn2cnc3c(cnn3-c3ccccc3)c2=O)CC1 [Compound I-194],1000 to 10000

row,Compound,IC50 [nM]
1,O=C(c1cccc(CN2CCCC2)c1)N1CCC(O)(Cn2cnc3c(cnn3-c3ccc(Cl)cc3)c2=O)CC1 [Compound I-1127],1000 to 10000
2,CN(C)C(=O)N1CCC(O)(Cn2cnc3c(cnn3-c3ccc(N4CCC5(CCNCC5)CC4)cc3)c2=O)CC1 [Compound I-508],200 to 1000
3,COc1ccc(-n2ncc3c(=O)n(CC4(O)CCN(C(=O)c5ccc(F)cc5)CC4)cnc32)cc1 [Compound I-620],200 to 1000
4,O=C(C1CC1)N1CCC(O)(Cn2cnc3c(cnn3-c3ccc(-c4cc(F)ccc4CO)cc3)c2=O)CC1 [Compound I-390],1000 to 10000
5,O=C(C1CC1)N1CCC(O)(Cn2cnc3c(cnn3-c3ccc(OC4CCOCC4)cc3)c2=O)CC1 [Compound I-1667],1000 to 10000
6,Cc1ccc(-n2ncc3c(=O)n(CC4(O)CCN(C(=O)c5ccc(Oc6ccccc6)cc5)CC4)cnc32)cc1 [Compound I-69],200 to 1000
7,O=C(c1ccc(Oc2ncccn2)cc1)N1CCC(O)(Cn2cnc3c(cnn3-c3ccc(F)cc3)c2=O)CC1 [Compound I-539],1000 to 10000
8,O=C(C1CC1)N1CCC(O)(Cn2cnc3c(cnn3-c3cccc(-c4cncc(F)c4)c3)c2=O)CC1 [Compound I-387],1000 to 10000
9,CN(C)C(=O)N1CCC(O)(Cn2cnc3c(cnn3-c3ccc(OCC4CCC4)cc3)c2=O)CC1 [Compound I-1295],1000 to 10000
10,CC1(O)CCN(Cc2cccc(C(=O)N3CCC(O)(Cn4cnc5c(cnn5-c5ccc(F)cc5)c4=O)CC3)c2)C1 (centres unmarked) [Compound I-601],> 10000
11,O=C(c1ccc(F)cc1)N1CCC(O)(Cn2cnc3c(cnn3-c3cccc(OCC4CCOCC4)c3)c2=O)CC1 [Compound I-1325],1000 to 10000
12,Cc1ccc(-n2ncc3c(=O)n(CC4(O)CCN(C(=O)C[C@H](C)c5ccccc5)CC4)cnc32)cc1 [Compound I-1139],< 200
13,O=C(C[C@H](c1ccccc1)C(F)(F)F)N1CCC(O)(Cn2cnc3c(cnn3-c3ccccc3)c2=O)CC1 [Compound I-141],1000 to 10000
14,CC1(C(=O)N2CCC(O)(Cn3cnc4c(cnn4-c4ccc(F)cc4)c3=O)CC2)CCC1 [Compound I-464],200 to 1000
15,Cn1ccc(Oc2ccc(C(=O)N3CCC(O)(Cn4cnc5c(cnn5-c5ccc(F)cc5)c4=O)CC3)cc2)n1 [Compound I-719],1000 to 10000
16,CN(C)c1ncc(C(=O)N2CCC(O)(Cn3cnc4c(cnn4-c4ccc(F)cc4)c3=O)CC2)o1 [Compound I-315],1000 to 10000
